{
  "source": "patent US4151350A",
  "about": "“Poly-5-hydroxycytidylic acid copolymers” (priority 1976, dated 1979)",
  "key": {"[1]": {"test": "Acute toxicity (LD50), intraperitoneal, mice (Example 6, Table 4)", "assay_type": "in vivo, 6 week old female albino mice", "conditions": "i.p.; for Estimated LD50 dose: mice", "from_the_text": "The toxicity of these mixtures (LD50) are compared with the toxicity of poly I alone and the double-stranded complex between poly I and poly C (poly I:C). The mixtures contained poly ho^5 C containing 62% ho^5 CMP and 38% br^5 CMP obtained by bromine water treatment of poly C as described in example 1. Some of this material was frozen in the absence of salt to produce a gelled material when thawed. This material was homogenised and mixed with an equal weight of poly I and then administered intraperitoneally to the mice. Some of the poly ho^5 C is kept unfrozen and mixed with poly I and then administered intraperitoneally to the mice.\nPoly I:C was made up in HBS at 5mg. 8mg, 10mgs and 13mg/ml and 0.1ml\ninjected per mouse to give the total doses shown.\nPoly I was made up in HBS at 12mg/ml and appropriate volumes administered\nto give the final doses indicated.\nin HBS to a total polynucleotide concentration of 12mg/ml and appropriate\nvolumes administered to give the final doses indicated.\nNo deaths occurred after 7 days (records maintained 2 months) and mean"}, "[2]": {"conditions": "particularly by virtue of its ability to induce interferon; cited from earlier work"}},
  "data": [
    {"substance": "polyinosinic acid [poly I]", "values": [
      {"measurement": "Survival of mice per group", "setting": "[1]; 8 mg total polynucleotides", "result": "5/6"},
      {"measurement": "Survival of mice per group", "setting": "[1]; 12 mg total polynucleotides", "result": "5/6"},
      {"measurement": "Survival of mice per group", "setting": "[1]; 16 mg total polynucleotides", "result": "3/6"},
      {"measurement": "Survival of mice per group", "setting": "[1]; 24 mg total polynucleotides", "result": "1/6"},
      {"measurement": "Estimated LD50 dose", "setting": "[1]", "result": 16, "unit": "mg/mouse"},
      {"measurement": "Estimated LD50 dose", "setting": "[1]; mean weight 23 g", "result": 695, "unit": "mg/kilogram"}
    ]},
    {"substance": "poly I:C", "values": [
      {"measurement": "Survival of mice per group", "setting": "[1]; 0.5 mg total polynucleotides", "result": "10/10"},
      {"measurement": "Survival of mice per group", "setting": "[1]; 0.8 mg total polynucleotides", "result": "8/10"},
      {"measurement": "Survival of mice per group", "setting": "[1]; 1.0 mg total polynucleotides", "result": "6/10"},
      {"measurement": "Survival of mice per group", "setting": "[1]; 1.3 mg total polynucleotides", "result": "0/10"},
      {"measurement": "Estimated LD50 dose", "setting": "[1]", "result": 1.1, "unit": "mg/mouse"},
      {"measurement": "Estimated LD50 dose", "setting": "[1]; mean weight 23 g", "result": 48, "unit": "mg/kilogram"},
      {"measurement": "anti-viral effects", "setting": "[2]", "result": "known to have anti-viral effects"}
    ]}
  ]
}
